Results taken from article PMC10683761 (ACS Sensors, 2023).

Tests used:
Assay type in all cases: cell-based, human
dMASS^1 [1] = conditions: 10 μM compound, sensor dMASS^1, mean ± SEM, N = 40 cells
dLight1.1 = conditions: 10 μM compound, sensor dLight1.1, mean ± SEM, N = 40 cells
dMASS^1 [2] = assay: dMASS^1 response to 1 μM DA in presence of dopamine receptor subtype antagonists

SMILES | response normalized to 10 μM DA stimulation (dMASS^1 [1]) | response normalized to 10 μM DA stimulation (dLight1.1) | effect on DA-dependent response of dMASS^1 (dMASS^1 [2])
NCCc1c[nH]c2ccc(O)cc12 [5-HT, 5-hydroxytryptamine] | 3.32 ± 0.20% | 6.61 ± 0.69% | 
NC[C@H](O)c1ccc(O)c(O)c1 [NE, norepinephrine] | 58.00 ± 3.46% | 55.06 ± 4.31% | 
CC(C)NCC(O)c1ccc(O)c(O)c1 (centres unmarked) [Iso, isoproterenol] | 3.80 ± 0.21% | 8.89 ± 0.83% | 
CN1CCc2cc(Cl)c(O)cc2[C@@H](c2ccccc2)C1 [SCH23390] | 3.58 ± 0.16% | 8.87 ± 0.58% | 
CC(=O)OCC[N+](C)(C)C [ACh, acetylcholine] | 3.61 ± 0.14% | 8.22 ± 0.58% | 
CCN1CCCC1CNC(=O)c1cc(S(N)(=O)=O)ccc1OC (centres unmarked) [Sulpiride] |  |  | but not dMASS^1
